Consider twelve compounds from ChEMBL document CHEMBL1129136, “Synthesis and evaluation of amino acid ester prodrugs of penciclovir” (Bioorg Med Chem Lett, 1996).

Some results are limits rather than exact numbers.

Data set [1] in a line: Half life was measured […] at 37 degree Celsius temperature by HPLC assay using a c18 reversed-phase column. It counts as ADME.
The subject of the next data set is Mus musculus. Kind of data set: Compound was tested to determine the total amount of penciclovir recovered in the urine over a 48-h period after a single oral dose of 0.2 mmol/kg. It counts as functional.
The test system of a further data set is Vero. Kind of data set: Compound was tested for its antiviral activity against HSV-1(KOS strain) in vero cells. The data set is classed as functional, cell-based. Conditions: Chlorocebus sabaeus.
Data set [2] can be described thus: Half life was measured at pH 7.4 and at 37 degree Celsius temperature. It counts as ADME.
The nature of data set [3]: Half life was measured at pH 1.0 and at 37 degree Celsius temperature. It counts as ADME.
The nature of data set [4]: Half life was measured at pH 8.0 and at 37 degree Celsius temperature. The data set is classed as ADME.

With `CCCC(=O)OCC(CCn1cnc2c(O)nc(N)nc21)COC(=O)[C@@H](N)C(C)C.Cl` (some centres undefined), the half-life (as a rule, the time needed for the level to fall by half in the phase considered) in data set [1] was 122 h; in data set [2], 18.4 h; in data set [3], 33.3 h; in data set [4], 14.1 h. Besides, the “Dose (urinary recovery)” value with Mus musculus is reported as 29%. Besides, the EC50 (as a rule, the concentration at which the effect is half-maximal) with Vero came out at 42 µM.
In the case of `CC(C)C(=O)OCC(CCn1cnc2c(O)nc(N)nc21)COC(=O)[C@@H](N)C(C)C.Cl` (some centres undefined), the half-life is 120 h in data set [1], 19.1 h in data set [2], 47.5 h in data set [3] and 14.4 h in data set [4]. In the data set with Mus musculus, the “Dose (urinary recovery)” value came to 20%. The EC50 in the data set on Vero was more than 100 µM.
In the case of `CCC(C)[C@H](N)C(=O)OCC(CCn1cnc2c(O)nc(N)nc21)COC(=O)[C@@H](N)C(C)CC.Cl.Cl` (some centres undefined), the half-life in data set [1] was 52.9 h; in data set [2], 11.4 h; in data set [3] it was more than 168 h; in data set [4], 9.8 h. Further, in the data set with Mus musculus, the “Dose (urinary recovery)” value was found to be 9%. The EC50 in the data set on Vero stood at 42.3 µM.
For the compound `CC(C)[C@H](N)C(=O)OCC(CCn1cnc2c(O)nc(N)nc21)COC(=O)[C@@H](N)C(C)C.Cl.Cl`, the half-life was 30.9 h in data set [1], 6.7 h in data set [2], more than 168 h in data set [3] and 6 h in data set [4]. The “Dose (urinary recovery)” value in the data set with Mus musculus stood at 25%. Moreover, it took 25.5 µM to reach a half-maximal effect with Vero (EC50).
As for `CCC(C)[C@H](N)C(=O)OCC(CCn1cnc2c(O)nc(N)nc21)COC(C)=O.Cl` (some centres undefined), the half-life in data set [1] was 105 h; in data set [2] it was 24.8 h; in data set [3], 19.4 h; in data set [4], 19.1 h. Further, the “Dose (urinary recovery)” value in the data set with Mus musculus turned out to be 15%. The same compound showed an EC50 in the data set on Vero of more than 100 µM.
Take `CCC(=O)OCC(CCn1cnc2c(O)nc(N)nc21)COC(=O)[C@@H](N)C(C)C.Cl` (some centres undefined): the half-life in data set [1] is 104 h; in data set [2], 17.3 h; in data set [3], 19.2 h; in data set [4] it was 13.6 h. Besides, the “Dose (urinary recovery)” value in the data set with Mus musculus is 25%. This compound yielded an EC50 with Vero of more than 100 µM.
As for `CC(=O)OCC(CCn1cnc2c(O)nc(N)nc21)COC(=O)[C@@H](N)C(C)C.Cl` (some centres undefined), the half-life in data set [1] is 108 h; in data set [2], 13.2 h; in data set [3] it was 19.4 h; in data set [4], 13.2 h. Also, the “Dose (urinary recovery)” value with Mus musculus was 34%. The compound also came in with an EC50 in the data set on Vero of more than 100 µM.
With `CCC(C)[C@H](N)C(=O)OCC(CCn1cnc2c(O)nc(N)nc21)COC(=O)C(C)C.Cl` (some centres undefined), the half-life in data set [1] is 83.5 h; in data set [2], 24.9 h; in data set [3], 46.5 h; in data set [4], 19.4 h. Moreover, in the data set with Mus musculus, the “Dose (urinary recovery)” value amounted to 13%. For the same compound, in the data set with Vero, the EC50 was more than 100 µM.
`CCCC(=O)OCC(CCn1cnc2c(O)nc(N)nc21)COC(=O)[C@@H](N)C(C)CC.Cl` (some centres undefined): the half-life in data set [1] was 93.7 h; in data set [2], 27 h; in data set [3], 34 h; in data set [4] it was 19.9 h. Moreover, in the data set with Mus musculus, the “Dose (urinary recovery)” value was 19%. This compound registered an EC50 in the data set on Vero of 24.2 µM.
Regarding `CCC(=O)OCC(CCn1cnc2c(O)nc(N)nc21)COC(=O)[C@@H](N)C(C)CC.Cl` (some centres undefined), the half-life was 83.5 h in data set [1], 25 h in data set [2], 19 h in data set [3] and 19.9 h in data set [4]. In addition, the “Dose (urinary recovery)” value with Mus musculus was determined as 20%. In the data set on Vero, this compound had an EC50 of more than 100 µM.
As for `CC(=O)OCC(CCn1cnc2cnc(N)nc21)COC(C)=O` [FAMCICLOVIR], the “Dose (urinary recovery)” value in the data set with Mus musculus was 33%. In the data set on Vero, this compound came in with an EC50 of more than 100 µM.
Taken in the same sequence, the figures for `Nc1nc(O)c2ncn(CCC(CO)CO)c2n1` [PENCICLOVIR] were 9% and 8.1 µM.
